Measured values published in patent US20230114728A1 (Venatorx Pharmaceuticals, Inc., priority 2019, published 2023).
≈ marks a conversion by molar mass, not a printed value.

Experiments:
[1] = test system: N. gonorrhoeae ATCC 49226; assay: Liquid broth MIC in Fastidious broth; type: cell-based; details: Neisseria gonorrhoeae, ATCC49226; N. gonorrhoeae strain ATCC 49226; Fastidious broth; read-out: Minimum Inhibitory Concentration, N. gonorrhoeae ATCC 49226
Outline: (§1)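 Colonies were swabbed from chocolate agar after 24 h growth and standardised by optical density at 600 nm. Compounds were serially diluted twofold in Fastidious broth, and bacteria added to give 5×10^5 CFU/mL. After about 24 h at 36 °C in 5% CO2, the lowest concentration allowing under 10% growth was taken as MIC.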

N. gonorrhoeae WHO G = assay: Liquid broth MIC in Fastidious broth; type: cell-based; details: Neisseria gonorrhoeae; N. gonorrhoeae strain WHO G; Fastidious broth; read-out: Minimum Inhibitory Concentration, N. gonorrhoeae WHO G
Outline: as §1

N. gonorrhoeae H041 = assay: Liquid broth MIC in Fastidious broth; type: cell-based; details: Neisseria gonorrhoeae, H041, read-out: Minimum Inhibitory Concentration, N. gonorrhoeae H041
Outline: (§2)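 Strains bearing mosaic PBP2 grown 24 h on chocolate agar (36° C, 5% CO2), suspended in saline and added to 2-fold compound dilutions in Fastidious broth at 5×10^5 CFU/mL. After ~24 hours at 36° C with 5% CO2, MIC taken visually as lowest well with <10% growth relative to full growth.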

N. gonorrhoeae FA1090 = assay: Liquid broth MIC in Fastidious broth; type: cell-based; details: Neisseria gonorrhoeae; N. gonorrhoeae strain FA1090; Fastidious broth; read-out: Minimum Inhibitory Concentration, N. gonorrhoeae FA1090
Outline: as §1

N. gonorrhoeae WHO Q = assay: Liquid broth MIC in Fastidious broth; type: cell-based; details: Neisseria gonorrhoeae, read-out: Minimum Inhibitory Concentration, N. gonorrhoeae WHO Q
Outline: as §2

N. gonorrhoeae WHO L = assay: Liquid broth MIC in Fastidious broth; type: cell-based; details: Neisseria gonorrhoeae; N. gonorrhoeae strain WHO L; Fastidious broth; read-out: Minimum Inhibitory Concentration, N. gonorrhoeae WHO L
Outline: as §1

N. gonorrhoeae WHO Z = assay: Liquid broth MIC in Fastidious broth; type: cell-based; details: Neisseria gonorrhoeae, read-out: Minimum Inhibitory Concentration, N. gonorrhoeae WHO Z
Outline: as §2

N. gonorrhoeae WHO K = assay: Liquid broth MIC in Fastidious broth; type: cell-based; details: Neisseria gonorrhoeae, read-out: Minimum Inhibitory Concentration, N. gonorrhoeae WHO K
Outline: as §2

P. aeruginosa PBP3 = molecular target: T1, P. aeruginosa PBP3 (Pseudomonas aeruginosa, UniProt G3XD46); assay: Bocillin-FL fluorescence polarization competition binding assay, P. aeruginosa PBP3; details: fluorescence polarization competition binding assay using Bocillin-FL
T1 construct: made in house
Outline: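 Binding of boronic acid inhibitors to purified Pseudomonas aeruginosa (PA01) PBP3 was measured by fluorescence polarization competition with Bocillin-FL, a fluorescent penicillin V. Reactions of 80 μl contained 0.75 μM PBP3 and 0.1 μM Bocillin-FL in 50 mM Hepes (pH 8.0), 300 mM NaCl and 5% (v/v) glycerol, in black 384-well plates. FP (Excitation 490 nm, Emission 520 nm) was read for up to 60 minutes. EC50 is the concentration that halves PBP-bound Bocillin-FL.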

E. coli K12 PBP3 = molecular target: T2, E. coli K12 PBP3 (Escherichia coli, UniProt P0AD68); assay: biochemical; type: binding
T2 construct: made in house
Outline: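 Fluorescence polarization (ex 490/em 520 nm) competition of inhibitors against Bocillin-FL at 0.1 μM, read up to 60 min. Final PBP levels: E. coli PBP3 1.5 μM; A. baumannii PBP2 2.5 μM, PBP3 0.2 μM in Tris pH 8.0/NaCl/glycerol/Tween 20; N. gonorrhoeae PBP2 […] in Hepes pH 8.0/NaCl/glycerol. EC50 = concentration halving PBP-bound Bocillin-FL.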

T1 sequence (G3XD46 whole entry): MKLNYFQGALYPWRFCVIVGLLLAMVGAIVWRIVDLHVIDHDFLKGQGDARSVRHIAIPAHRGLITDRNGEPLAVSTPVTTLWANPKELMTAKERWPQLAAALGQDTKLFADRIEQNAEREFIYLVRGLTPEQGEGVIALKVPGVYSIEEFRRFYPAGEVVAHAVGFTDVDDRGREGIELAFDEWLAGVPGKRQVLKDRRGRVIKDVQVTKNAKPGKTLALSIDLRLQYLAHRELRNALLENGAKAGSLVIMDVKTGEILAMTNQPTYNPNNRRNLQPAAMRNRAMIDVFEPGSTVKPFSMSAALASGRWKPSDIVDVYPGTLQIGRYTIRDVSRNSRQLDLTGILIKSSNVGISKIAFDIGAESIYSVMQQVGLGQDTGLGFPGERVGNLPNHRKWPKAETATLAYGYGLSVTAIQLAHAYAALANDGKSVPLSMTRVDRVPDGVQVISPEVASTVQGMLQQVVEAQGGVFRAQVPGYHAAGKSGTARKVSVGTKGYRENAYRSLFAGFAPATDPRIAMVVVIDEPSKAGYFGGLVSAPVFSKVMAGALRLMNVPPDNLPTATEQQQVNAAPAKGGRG
T2 sequence (P0AD68 1-577): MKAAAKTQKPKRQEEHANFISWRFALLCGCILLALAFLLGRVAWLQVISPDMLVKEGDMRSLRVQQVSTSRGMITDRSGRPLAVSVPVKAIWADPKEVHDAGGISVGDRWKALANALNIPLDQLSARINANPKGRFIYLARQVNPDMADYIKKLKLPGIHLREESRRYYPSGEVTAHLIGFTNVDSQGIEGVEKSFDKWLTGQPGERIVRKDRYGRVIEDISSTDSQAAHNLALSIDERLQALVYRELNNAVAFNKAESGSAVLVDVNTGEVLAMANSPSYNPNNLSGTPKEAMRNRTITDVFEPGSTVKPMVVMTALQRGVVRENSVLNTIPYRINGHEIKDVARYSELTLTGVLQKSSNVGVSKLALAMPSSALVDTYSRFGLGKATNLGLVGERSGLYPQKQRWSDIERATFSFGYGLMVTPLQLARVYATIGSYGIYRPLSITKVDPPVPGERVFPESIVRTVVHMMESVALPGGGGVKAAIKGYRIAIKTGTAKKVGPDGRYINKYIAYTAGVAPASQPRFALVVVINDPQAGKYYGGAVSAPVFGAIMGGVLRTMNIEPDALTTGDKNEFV

| Structure (SMILES) | MIC [1] | MIC (N. gonorrhoeae WHO G) | MIC (N. gonorrhoeae H041) | MIC (N. gonorrhoeae FA1090) | MIC (N. gonorrhoeae WHO Q) | MIC (N. gonorrhoeae WHO L) | MIC (N. gonorrhoeae WHO Z) | MIC (N. gonorrhoeae WHO K) | P. aeruginosa PBP3 Potency (P. aeruginosa PBP3) | EC50 (E. coli K12 PBP3) |
| --- | --- | --- | --- | --- | --- | --- | --- | --- | --- | --- |
| CCN1CCN(C(=O)NC(C(=O)N[C@H]2Cc3cccc(C(=O)O)c3OB2O)c2cncc(O)c2)C(=O)C1=O (stereo partly drawn) [Example 112, (3R)-3-(2-(4-ethyl-2,3-dioxopiperazine-1-carboxamido)-2-(5-hydroxypyridin-3-yl)acetamido)-2-hydroxy-3,4-dihydro-2H-benzo[e][1,2]oxaborinine-8-carboxylic acid] | 4 to 8 µg/mL (≈ 7.61 to 15.2 µM) | 4 to 8 µg/mL (≈ 7.61 to 15.2 µM) | > 64 µg/mL | 1 to 2 µg/mL (≈ 1.9 to 3.81 µM) | 16 to 32 µg/mL (≈ 30.5 to 60.9 µM) | > 64 µg/mL | 16 to 32 µg/mL (≈ 30.5 to 60.9 µM) | > 64 µg/mL | D (D represents a potency <10 μM) | 30 to 500 µM |
| CCN1CCN(C(=O)NC(C(=O)N[C@H]2Cc3cccc(C(=O)O)c3OB2O)c2cccc(C(=O)O)c2)C(=O)C1=O (stereo partly drawn) [Example 113, (3R)-3-(2-(3-carboxyphenyl)-2-(4-ethyl-2,3-dioxopiperazine-1-carboxamido)acetamido)-2-hydroxy-3,4-dihydro-2H-benzo[e][1,2]oxaborinine-8-carboxylic acid] | 4 to 8 µg/mL (≈ 7.24 to 14.5 µM) | 4 to 8 µg/mL (≈ 7.24 to 14.5 µM) | > 64 µg/mL | 0.25 to 0.5 µg/mL (≈ 0.453 to 0.905 µM) | 16 to 32 µg/mL (≈ 29 to 57.9 µM) | > 64 µg/mL | 16 to 32 µg/mL (≈ 29 to 57.9 µM) | > 64 µg/mL | D (D represents a potency <10 μM) | < 30 µM |
| NS(=O)(=O)Nc1cccc(C(NC(=O)N2CCN(CCF)C(=O)C2=O)C(=O)N[C@H]2Cc3cccc(C(=O)O)c3OB2O)c1 (stereo partly drawn) [Example 116, (3R)-3-(2-(4-(2-fluoroethyl)-2,3-dioxopiperazine-1-carboxamido)-2-(3-(sulfamoylamino)phenyl)acetamido)-2-hydroxy-3,4-dihydro-2H-benzo[e][1,2]oxaborinine-8-carboxylic acid] | 16 to 32 µg/mL (≈ 25.8 to 51.6 µM) | 4 to 8 µg/mL (≈ 6.45 to 12.9 µM) | > 64 µg/mL | 0.25 to 0.5 µg/mL (≈ 0.403 to 0.806 µM) | 16 to 32 µg/mL (≈ 25.8 to 51.6 µM) | > 64 µg/mL | 16 to 32 µg/mL (≈ 25.8 to 51.6 µM) | 16 to 32 µg/mL (≈ 25.8 to 51.6 µM) | D (D represents a potency <10 μM) | < 30 µM |
| NCCCN1CCN(C(=O)N[C@@H](C(=O)N[C@H]2Cc3cccc(C(=O)O)c3OB2O)c2cccc(NS(N)(=O)=O)c2)C(=O)C1=O [Example 117, (R)-3-((R)-2-(4-(3-aminopropyl)-2,3-dioxopiperazine-1-carboxamido)-2-(3-(sulfamoylamino)phenyl)acetamido)-2-hydroxy-3,4-dihydro-2H-benzo[e][1,2]oxaborinine-8-carboxylic acid] | > 64 µg/mL | 16 to 32 µg/mL (≈ 25.3 to 50.7 µM) | > 64 µg/mL | 4 to 8 µg/mL (≈ 6.33 to 12.7 µM) | > 64 µg/mL | > 64 µg/mL | > 64 µg/mL | > 64 µg/mL | D (D represents a potency <10 μM) | 30 to 500 µM |
| NCCCN1CCN(C(=O)N[C@H](C(=O)N[C@H]2Cc3cccc(C(=O)O)c3OB2O)c2cccc(NS(N)(=O)=O)c2)C(=O)C1=O [Example 118, (R)-3-((S)-2-(4-(3-aminopropyl)-2,3-dioxopiperazine-1-carboxamido)-2-(3-(sulfamoylamino)phenyl)acetamido)-2-hydroxy-3,4-dihydro-2H-benzo[e][1,2]oxaborinine-8-carboxylic acid] | > 64 µg/mL | > 64 µg/mL | > 64 µg/mL | 4 to 8 µg/mL (≈ 6.33 to 12.7 µM) | > 64 µg/mL | > 64 µg/mL | > 64 µg/mL | > 64 µg/mL | D (D represents a potency <10 μM) | 30 to 500 µM |
| NC1(CN2CCN(C(=O)NC(C(=O)N[C@H]3Cc4cccc(C(=O)O)c4OB3O)c3cccc(NS(N)(=O)=O)c3)C(=O)C2=O)CC1 (stereo partly drawn) [Example 120, (3R)-3-(2-(4-((1-aminocyclopropyl)methyl)-2,3-dioxopiperazine-1-carboxamido)-2-(3-(sulfamoylamino)phenyl)acetamido)-2-hydroxy-3,4-dihydro-2H-benzo[e][1,2]oxaborinine-8-carboxylic acid] | > 64 µg/mL | > 64 µg/mL | > 64 µg/mL | 4 to 8 µg/mL (≈ 6.22 to 12.4 µM) | > 64 µg/mL | > 64 µg/mL | > 64 µg/mL | > 64 µg/mL | D (D represents a potency <10 μM) | 30 to 500 µM |
| O=C(O)c1c(F)ccc2c1OB(O)[C@@H](NC(=O)C(NC(=O)N1CCN(CCF)C(=O)C1=O)c1c(F)cc(O)cc1F)C2 (stereo partly drawn) [Example 129, (3R)-3-(2-(2,6-difluoro-4-hydroxyphenyl)-2-(4-(2-fluoroethyl)-2,3-dioxopiperazine-1-carboxamido)acetamido)-7-fluoro-2-hydroxy-3,4-dihydro-2H-benzo[e][1,2]oxaborinine-8-carboxylic acid] | 16 to 32 µg/mL (≈ 26.8 to 53.7 µM) | 4 to 8 µg/mL (≈ 6.71 to 13.4 µM) | 16 to 32 µg/mL (≈ 26.8 to 53.7 µM) | 1 to 2 µg/mL (≈ 1.68 to 3.35 µM) | 16 to 32 µg/mL (≈ 26.8 to 53.7 µM) | > 64 µg/mL | 4 to 8 µg/mL (≈ 6.71 to 13.4 µM) | 16 to 32 µg/mL (≈ 26.8 to 53.7 µM) | D (D represents a potency <10 μM) | < 30 µM |
| CCN1CCN(C(=O)NC(C(=O)N[C@H]2Cc3ccc(F)c(C(=O)O)c3OB2O)c2c(F)cc(O)cc2F)C(=O)C1=O (stereo partly drawn) [Example 130, (3R)-3-(2-(2,6-difluoro-4-hydroxyphenyl)-2-(4-ethyl-2,3-dioxopiperazine-1-carboxamido)acetamido)-7-fluoro-2-hydroxy-3,4-dihydro-2H-benzo[e][1,2]oxaborinine-8-carboxylic acid] | 4 to 8 µg/mL (≈ 6.92 to 13.8 µM) | 4 to 8 µg/mL (≈ 6.92 to 13.8 µM) | 16 to 32 µg/mL (≈ 27.7 to 55.3 µM) | 1 to 2 µg/mL (≈ 1.73 to 3.46 µM) | 16 to 32 µg/mL (≈ 27.7 to 55.3 µM) | > 64 µg/mL | 4 to 8 µg/mL (≈ 6.92 to 13.8 µM) | 16 to 32 µg/mL (≈ 27.7 to 55.3 µM) | D (D represents a potency <10 μM) | < 30 µM |
| NS(=O)(=O)Nc1cccc(C(NC(=O)N2CCN(Cc3c(F)cc(O)c(O)c3Cl)C(=O)C2=O)C(=O)N[C@H]2Cc3cccc(C(=O)O)c3OB2O)c1 (stereo partly drawn) [Example 131, (3R)-3-(2-(4-(2-chloro-6-fluoro-3,4-dihydroxybenzyl)-2,3-dioxopiperazine-1-carboxamido)-2-(3-(sulfamoylamino)phenyl)acetamido)-2-hydroxy-3,4-dihydro-2H-benzo[e][1,2]oxaborinine-8-carboxylic acid] | > 64 µg/mL | > 64 µg/mL | > 64 µg/mL | 16 to 32 µg/mL (≈ 21.4 to 42.7 µM) | > 64 µg/mL | > 64 µg/mL | > 64 µg/mL | > 64 µg/mL | D (D represents a potency <10 μM) | < 30 µM |
| NS(=O)(=O)c1cc(O)cc(C(NC(=O)N2CCN(Cc3c(F)cc(O)c(O)c3Cl)C(=O)C2=O)C(=O)N[C@H]2Cc3cccc(C(=O)O)c3OB2O)c1 (stereo partly drawn) [Example 132, (3R)-3-(2-(4-(2-chloro-6-fluoro-3,4-dihydroxybenzyl)-2,3-dioxopiperazine-1-carboxamido)-2-(3-hydroxy-5-sulfamoylphenyl)acetamido)-2-hydroxy-3,4-dihydro-2H-benzo[e][1,2]oxaborinine-8-carboxylic acid] | > 64 µg/mL | > 64 µg/mL | > 64 µg/mL | 16 to 32 µg/mL (≈ 21.3 to 42.7 µM) | > 64 µg/mL | > 64 µg/mL | > 64 µg/mL | > 64 µg/mL | D (D represents a potency <10 μM) | 30 to 500 µM |
| CCN1CCN(C(=O)NC(C(=O)N[C@H]2Cc3cccc(C(=O)O)c3OB2O)c2cc(F)c(C(=O)O)cc2F)C(=O)C1=O (stereo partly drawn) [Example 137, (3R)-3-(2-(4-carboxy-2,5-difluorophenyl)-2-(4-ethyl-2,3-dioxopiperazine-1-carboxamido)acetamido)-2-hydroxy-3,4-dihydro-2H-benzo[e][1,2]oxaborinine-8-carboxylic acid] | 1 to 2 µg/mL (≈ 1.7 to 3.4 µM) | 1 to 2 µg/mL (≈ 1.7 to 3.4 µM) | 16 to 32 µg/mL (≈ 27.2 to 54.4 µM) | 0.25 to 0.5 µg/mL (≈ 0.425 to 0.85 µM) | 4 to 8 µg/mL (≈ 6.8 to 13.6 µM) | 16 to 32 µg/mL (≈ 27.2 to 54.4 µM) | 4 to 8 µg/mL (≈ 6.8 to 13.6 µM) | 4 to 8 µg/mL (≈ 6.8 to 13.6 µM) | D (D represents a potency <10 μM) | < 30 µM |
